From patent US20250304700A1, “ANTI-BLOOD DENDRITIC CELL ANTIGEN 2 ANTIBODIES AND USES THEREOF” (Biogen MA Inc., priority 2012, published 2025)
Where “and” joins values, the source holds several entries; their conditions need not be identical. Equal values may be shown once.

Key:
human BDCA2 ectodomain = target: T1, human BDCA2 ectodomain (Homo sapiens, UniProt Q8WTT0); experiment: Octet binding of mAbs on anti-human Fc tips to monomeric huBDCA2
T1 construct: huBDCA2 ectodomain: residues 257-425 above (underlined); murine IgG2a Fc (with G4S linker) (N, cleaved yes); made in house
T1 sequence (Q8WTT0 45-213): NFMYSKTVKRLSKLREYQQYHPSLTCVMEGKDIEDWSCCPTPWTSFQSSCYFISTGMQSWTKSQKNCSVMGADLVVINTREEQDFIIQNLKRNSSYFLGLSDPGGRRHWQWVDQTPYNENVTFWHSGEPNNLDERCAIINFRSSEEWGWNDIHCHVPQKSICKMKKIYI
Protocol: Site-directed mutagenesis was performed using Agilent's QuikChange II mutagenesis kit following the manufacturer's recommended protocol. The C95S variant was constructed using the mutagenic primer 5′ GCAACCTATTACTGTCAACAAAGTAATGAGGATCCTCGGAC 3′ (SEQ ID NO: 38) and its reverse complement, which introduced a new HincII site, producing plasmid pEAG2678. The C95T variant was constructed using the mutagenic primer 5′ CAACCTATTACTGTCAGCAAACTAATGAAGATCCTCGGACGTTCG 3′ (SEQ ID NO: 39) and its reverse complement, which removed a BamHI site, producing plasmid pEAG2679. Mutated plasmids were identified by screening for the introduced restriction site changes. The full-length light chain cDNA sequences in the resultant plasmids were confirmed by DNA sequencing. Wildtype ch24F4 and the C95S and C95T variant mAbs were expressed transiently in 293E cells by co-transfection of pYL672 and pYL671, pEAG2678 or pEAG2679. Conditioned medium was harvested at 2 days post-transfection. Titers (assayed by Octet on anti-human Fc tips) of both variants were similar to that of wildtype ch24F4, and Western blots of nonreducing SDS-PAGE indicated no gross aggregation or obvious clipping relative to wildtype ch24F4 mAb. […] Conditioned medium containing ch24F4 and the C95 variant mAbs was assayed by Octet for binding to human BDCA2 ectodomain. Antibodies from conditioned medium from transiently transfected cells were bound to anti-human Fc tips, then monomeric huBDCA2 was flowed over the Octet tips, to examine binding and dissociation.
Conditioned medium containing ch24F4 and all hu24F4 variant mAbs was assayed by Octet for binding to human BDCA2 ectodomain. The monomeric huBDCA2 ectodomain was prepared by proteolytic cleavage from the purified muIgG2a Fc-huBDCA2 fusion protein (relevant plasmid: pEAG2423). Antibodies from conditioned medium from transiently transfected cells were bound to anti-human Fc tips, and then monomeric huBDCA2 was flowed over the Octet tips, to examine binding and dissociation.
To explore the possibility of enhancing hu24F4 affinity by substitution at the position of the 24F4 version L1 CDR L3 unpaired cysteine (C95S in hu24F4 light chain expression vector pYL740), a number of version L1 variants were constructed by site-directed mutagenesis. Backmutation to the unpaired cysteine, i.e., S95C, was constructed by site-directed mutagenesis producing plasmid pYL749. Variants S95T, S95A, and S95V were constructed by site-directed mutagenesis producing plasmids pYL750, pYL751, and pYL752, respectively. The full-length light chain cDNA sequences in the resultant plasmids were confirmed by DNA sequencing. C95 variant hu24F4 mAbs were expressed transiently in 293E cells by co-transfection of hu24F4 H4 heavy chain pYL746 or hu24F4 H5 heavy chain pYL747 with hu24F4 L1 variant light chains C95S pYL740, S95C pYL749, S95T pYL750, S95A pYL751 or S95V pYL752 plasmids. Conditioned medium was harvested at 2 days post-transfection. Titers (assayed by Octet on anti-human Fc tips) of all variants were similar, and Western blots of nonreducing SDS-PAGE indicated no gross aggregation or obvious clipping. Conditioned medium containing the C95 variant mAbs was assayed by Octet for binding to human BDCA2 ectodomain. Antibodies from conditioned medium from transiently transfected cells were bound to anti-human Fc tips, then monomeric huBDCA2 was flowed over the Octet tips, to examine binding and dissociation. C95A variants had the slowest off-rates.

[1] = tested on: TLR9-induced IFNα production in whole blood; experiment: Whole blood assay, TLR9-induced IFNα production; type: cell-based, human; conditions: CpG-A stimulated whole blood
Protocol: Whole blood was drawn from heparinized venous blood of healthy donors. […] CpG-A was added at 200 μg/mL, which was determined to be optimal for stimulation of IFNα production in whole blood. Plates were incubated for 18 hours at 37° C. and supernatants collected for use in IFNα ELISA assays (PBL InterferonSource). The assays were performed according to the manufacturer's protocol. Shown in FIG. 15A is a representative experiment of 6 independent experiments performed.
Specifically, whole blood from 2 SLE patients or 2 healthy donors was provided by Bioreclamation LLC by overnight shipping. […] Plates were incubated for 18 hours at 37° C. and supernatants collected for use in IFNα ELISA assays (PBL InterferonSource). The assays were performed according to the manufacturer's protocol.
CpG-A was added at 75 μg/mL (open square), which was determined to be optimal for stimulation of IFNα production in whole blood. Plates were incubated for 18 hours at 37° C. and supernatants collected for use in IFNα ELISA assays (PBL InterferonSource).
The whole blood was then collected, lysed, and BDCA2 expression was assessed by flow cytometry using the FITC-conjugated non-cross blocking antibody 2D6. […] The supernatants were harvested and evaluated for IFNα by ELISA.

[2] = tested on: Sm/RNP immune complexes-induced cytokines by pDCs; experiment: Cytokines from Sm/RNP immune complex stimulated purified pDCs; type: cell-based, human; conditions: 10 μg/mL BIIB059, 18 hours
Protocol: Specifically, Sm/RNP immune complexes (IC) were pre-formed by mixing sm-RNP from calf thymus and anti-RNP antibodies purified form sera of SLE patients for 1 h in serum-free medium. pDCs from human healthy donors were isolated using a two-step magnetic bead separation procedure (MACS kit, Miltenyi Biotec). […] The plates containing pDCs were incubated for 18 hours at 37° C. and supernatants collected for use in ELISA or multiplex assays to measure concentrations of inflammatory cytokines and chemokines.

BDCA2 receptor on pDCs = experiment: BDCA2 and bound BIIB059 on pDC surface after dosing cynomolgus monkeys; type: in vivo, cynomolgus monkey
Source text: At the same time point (1 hr), some free BDCA2 was observed (13%, 74%, 72% of baseline MFI).
EC10-50-90 curves were generated in GraphPad Prism software using a four-parameter fit.

[3] = Example 5, conditioned medium, hu24F4 variants
[4] = Example 6, conditioned medium, L1 position 95 variants

Chain of BDCA2 receptor on pDCs (as listed by the source): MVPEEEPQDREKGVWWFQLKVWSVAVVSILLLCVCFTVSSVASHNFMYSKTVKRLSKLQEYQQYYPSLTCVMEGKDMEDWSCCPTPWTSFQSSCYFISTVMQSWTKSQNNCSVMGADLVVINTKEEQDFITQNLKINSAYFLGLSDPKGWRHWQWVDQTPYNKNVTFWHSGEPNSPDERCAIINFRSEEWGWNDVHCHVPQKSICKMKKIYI

Substance | kdis (human BDCA2 ectodomain; [3]) [s⁻¹] | kon (human BDCA2 ectodomain; [3]) [M⁻¹ s⁻¹] | kdis (human BDCA2 ectodomain; [4]) [s⁻¹] | kon (human BDCA2 ectodomain; [4]) [M⁻¹ s⁻¹] | other cytokines and chemokines in whole blood [1] | Sm/RNP immune complexes-induced IFNα, TNFα and IL-6 [2] | chemokines induced by Sm/RNP immune complexes (CCL3, CCL4) [2] | BIIB059 on the pDC surface (BDCA2 receptor on pDCs; IV 10 mg/kg or 1 mg/kg, from 1 hour post injection) | free BDCA2 (BIIB059-A647 staining) (BDCA2 receptor on pDCs; IV 10 mg/kg or 1 mg/kg, through 38 days, except monkey 5) | EC10 (ug/mL), internalization of BDCA2 (BDCA2 receptor on pDCs; IV 10 mg/kg, monkeys 3, 8, 10, 10 mg/kg) | free BDCA2 receptor over time (BDCA2 receptor on pDCs; SC 0.2 mg/kg) | BIIB059 on the pDC surface (BDCA2 receptor on pDCs; SC 0.2 mg/kg, at 1 hour, disappeared by 6 hours) | EC10 (ug/mL), Mean (BDCA2 receptor on pDCs; mean of all dosed monkeys) [µg/mL] | EC90 (ug/mL), Mean (BDCA2 receptor on pDCs; mean of all dosed monkeys) [µg/mL]
24F4S: hu24F4 H4/L1 with C95S light chain; differs from BIIB059 by 1 amino acid residue | 0.000408 | 549000 | 0.000398 | 727000 | – | – | – | – | – | – | – | – | – | –
BIIB059: humanized IgG1 anti-BDCA2 antibody, mature heavy chain SEQ ID NO: 4 and mature light chain SEQ ID NO: 3 | – | – | – | – | inhibition of a large array of cytokines and chemokines | potently inhibited | also inhibited | no BIIB059 was detected on the surface | no free BDCA2 | 0.100 µg/mL and 0.095 µg/mL and 0.114 µg/mL | no free BDCA2 receptor was detected until day 14 | briefly observed on the surface of pDCs | 0.064 | 0.359
